Experimental data taken from patent US20170275275A1, “BENZENESULFONAMIDES USEFUL AS SODIUM CHANNEL INHIBITORS” (PFIZER INC., priority 2014, published 2017).
Counter-ions that a name gives are not always drawn.

Legend:
[1] = molecular target: T1, Nav1.7 (or SCN9A) channel (Homo sapiens, UniProt Q15858); assay: Nav1.7 (hSCN9A) channel block, PatchXpress (PX) whole-cell electrophysiology in stably transfected HEK cells; type: cell-based; conditions: estimated IC50 from single point electrophysiology data; PatchXpress platform; HEK cells expressing hSCN9A; clamped at V1/2 of inactivation; read-out: Nav1.7 EIC50
T1 construct: expressed in transfected cells
Procedure: The ability of the compounds of formula (I) to block the Nav1.7 (or SCN9A) channel was measured using the assay described below.
Human Embryonic Kidney (HEK) cells were transfected with an hSCN9A construct using lipofectamine reagent (Invitrogen), using standard techniques. Cells stably expressing the hSCN9A constructs were identified by their resistance to G-418 (400 μg/ml). Clones were screened for expression using the whole-cell voltage-clamp technique.
HEK cells stably transfected with hSCN9A were maintained in DMEM medium supplemented with 10% heat-inactivated fetal bovine serum and 400 μg/ml G-418 in an incubator at 37° C. with a humidified atmosphere of 10% CO2. For HTS, cells were harvested from flasks by trypsinization and replated in an appropriate multi-well plate (typically 96 or 384 wells/plate) such that confluence would be achieved within 24 hours of plating. Cells were typically used for electrophysiological experiments within 24 to 72 hours after plating.
For conventional whole-cell voltage clamp experiments cells were removed from the culture flask by brief trypsinization and re-plated at low density onto glass cover slips. Cover slips containing HEK cells expressing hSCN9A were placed in a bath on the stage of an inverted microscope and perfused (approximately 1 ml/minutes) with extracellular solution of the following composition: 138 mM NaCl, 2 mM CaCl2, 5.4 mM KCl, 1 mM MgCl2, 10 mM glucose, and 10 mM HEPES, pH 7.4, with NaOH. […] The osmolarity of the extracellular and intracellular solutions was 300 mOsm/kg and 295 mOsm/kg, respectively. All recordings were made at room temperature (22-24° C.) using AXOPATCH 200B amplifiers and PCLAMP software (Axon Instruments, Burlingame, Calif.). hSCN9A currents in HEK cells were measured using the whole-cell configuration of the patch-clamp technique (Hamill et al., 1981). Uncompensated series resistance was typically 2 to 5 mega ohms and >85% series resistance compensation was routinely achieved. […] Current records were acquired at 20 to 50 KHz and filtered at 5 to 10 KHz.
HEK cells stably transfected with hSCN9A were viewed under Hoffman contrast optics and placed in front of an array of flow pipes emitting either control or compound-containing extracellular solutions.
The voltage-dependence of inactivation was determined by applying a series of depolarizing prepulses (8 sec long in 10 mV increments) from a negative holding potential. The voltage was then immediately stepped to 0 mV to assess the magnitude of the sodium current. Currents elicited at 0 mV were plotted as a function of prepulse potential to allow estimation of the voltage at which 50% of the channels were inactivated (midpoint of inactivation or V1/2). Compounds were tested for their ability to inhibit hSCN9A sodium channels by activating the channel with a 20 msec voltage step […] to 0 mV following an 8 second conditioning prepulse to the empirically determined V1/2. Compound effect (% inhibition) was determined by difference in current amplitude before and after application of test compounds. For ease of comparison, “estimated IC-50” (EIC50) values were calculated from single point electrophysiology data by the following equation, (tested concentration, nM)×(100-% inhibition/% inhibition). Inhibition values <20% and >80% were excluded from the calculation.
Electrophysiological assays were conducted with PatchXpress 7000 hardware and associated software (Molecular Devices Corp). All assay buffers and solutions were identical to those used in conventional whole-cell voltage clamp experiments described above. hSCN9A cells were grown as above to 50%-80% confluency and harvested by trypsinization. Trypsinized cells were washed and resuspended in extracellular buffer at a concentration of 1×10^6 cells/ml. The onboard liquid handling facility of the PatchXpress was used for dispensing cells and application of test compounds.

[2] = Aqueous solubility, shake-flask method; type: physicochemical; conditions: aqueous buffer, thermodynamic from solid, pH 7.0, shaken 18 hours at room temperature
Procedure: Aqueous solubility data were generated via a “shake-flask” method where an excess of compound was added to a buffer (typically phosphate buffered saline at pH 7.4) and shaken for a period of 18 hours at room temperature. After this time any excess solid was removed by double centrifugation to obtain a saturated aqueous solution. The amount of compound solubilised was quantified by HPLC-UV or LC-MS against a standard calibration curve.
The solubility data generated are set out below. Where a greater than figure is quoted, all available compound was solubilised and saturation was not achieved in the conditions employed.

T1 sequence (Q15858 whole entry): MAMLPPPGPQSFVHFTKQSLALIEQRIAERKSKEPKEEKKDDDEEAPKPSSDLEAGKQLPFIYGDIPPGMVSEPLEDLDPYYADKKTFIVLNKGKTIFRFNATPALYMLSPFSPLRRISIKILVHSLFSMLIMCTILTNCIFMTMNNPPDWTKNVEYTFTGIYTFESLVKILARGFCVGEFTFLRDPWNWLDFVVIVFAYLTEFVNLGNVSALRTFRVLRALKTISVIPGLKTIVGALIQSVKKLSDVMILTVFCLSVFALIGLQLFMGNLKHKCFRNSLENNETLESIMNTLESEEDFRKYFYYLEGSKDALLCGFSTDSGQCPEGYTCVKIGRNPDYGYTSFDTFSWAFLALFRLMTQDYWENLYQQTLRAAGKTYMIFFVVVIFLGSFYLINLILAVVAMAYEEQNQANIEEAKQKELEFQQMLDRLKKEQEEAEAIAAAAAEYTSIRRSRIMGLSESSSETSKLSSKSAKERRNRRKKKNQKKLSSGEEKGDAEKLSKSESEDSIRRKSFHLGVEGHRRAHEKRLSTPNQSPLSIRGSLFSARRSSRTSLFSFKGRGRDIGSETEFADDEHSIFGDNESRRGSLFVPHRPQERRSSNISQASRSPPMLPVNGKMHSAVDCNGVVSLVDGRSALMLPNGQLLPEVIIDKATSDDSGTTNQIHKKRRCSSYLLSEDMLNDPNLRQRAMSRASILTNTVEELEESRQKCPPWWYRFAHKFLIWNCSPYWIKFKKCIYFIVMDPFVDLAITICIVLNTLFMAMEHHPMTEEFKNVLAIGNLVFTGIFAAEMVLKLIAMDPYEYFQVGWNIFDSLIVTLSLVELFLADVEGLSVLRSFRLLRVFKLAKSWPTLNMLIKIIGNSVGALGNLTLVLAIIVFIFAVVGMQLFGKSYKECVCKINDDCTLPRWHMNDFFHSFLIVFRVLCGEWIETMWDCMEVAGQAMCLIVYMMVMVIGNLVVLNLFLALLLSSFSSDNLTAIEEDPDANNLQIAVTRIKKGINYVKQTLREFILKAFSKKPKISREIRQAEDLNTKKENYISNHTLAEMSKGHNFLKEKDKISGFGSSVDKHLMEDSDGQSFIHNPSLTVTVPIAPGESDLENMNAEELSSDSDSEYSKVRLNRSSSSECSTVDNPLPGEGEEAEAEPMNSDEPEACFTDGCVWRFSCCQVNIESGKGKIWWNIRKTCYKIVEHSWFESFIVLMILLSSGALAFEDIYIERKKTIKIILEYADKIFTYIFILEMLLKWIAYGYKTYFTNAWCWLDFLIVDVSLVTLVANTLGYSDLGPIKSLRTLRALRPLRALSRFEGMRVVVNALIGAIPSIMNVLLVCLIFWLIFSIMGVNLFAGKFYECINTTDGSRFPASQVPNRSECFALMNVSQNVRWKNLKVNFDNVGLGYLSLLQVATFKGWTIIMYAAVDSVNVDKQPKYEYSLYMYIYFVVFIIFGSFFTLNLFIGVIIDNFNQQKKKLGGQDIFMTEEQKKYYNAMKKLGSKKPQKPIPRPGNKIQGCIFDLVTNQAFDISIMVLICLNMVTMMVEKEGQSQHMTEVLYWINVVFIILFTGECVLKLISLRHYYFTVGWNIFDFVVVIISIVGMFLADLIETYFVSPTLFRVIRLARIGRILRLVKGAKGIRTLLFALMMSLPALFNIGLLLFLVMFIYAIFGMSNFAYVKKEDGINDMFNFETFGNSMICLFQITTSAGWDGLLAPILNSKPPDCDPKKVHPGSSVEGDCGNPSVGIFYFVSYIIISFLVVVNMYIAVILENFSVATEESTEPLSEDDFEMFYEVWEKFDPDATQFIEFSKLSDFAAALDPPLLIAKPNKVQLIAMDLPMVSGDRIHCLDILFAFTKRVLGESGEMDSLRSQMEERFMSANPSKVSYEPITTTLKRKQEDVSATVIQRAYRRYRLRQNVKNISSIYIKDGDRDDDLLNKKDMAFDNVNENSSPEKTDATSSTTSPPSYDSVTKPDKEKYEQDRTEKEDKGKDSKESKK

Compound: NCc1cc(-c2cc(-c3cccc(C(F)(F)F)c3)ccc2Oc2cc(F)c(S(=O)(=O)Nc3cscn3)cc2Cl)ccn1 [Example 29, 4-({3-[2-(aminomethyl)pyridin-4-yl]-3′-(trifluoromethyl)biphenyl-4-yl}oxy)-5-chloro-2-fluoro-N-(1,3-thiazol-4-yl)benzenesulfonamide dihydrochloride salt]
- IC50 [1]: 2.9 nM
- solubility at 18 h [2]: < 0.5 µg/mL
